Source: US8633195B1, “Method of inhibiting apolipoprotein-E expression comprising administering a triarylmethyl amine compound” (Fresno California State University, priority 2012, dated 2014)

Legend:
Type in all cases: cell-based
[1] = system: apoE expression in human CCF-STTG1 astrocytoma cells; assay: ApoE ELISA on conditioned medium of human CCF-STTG1 astrocytoma cells; settings: 10 μM compound, 24 hours; for ApoE (ng/ml) Normalized for Cell Count and Vehicle Treatment: normalized to DMSO treated cells
Experimental: The triarylmethyl amine compounds, including the ones shown in TABLE 1, were tested for biological effects on mammalian cells in an ELISA, an assay well-known in the art. […] The ELISA technique involves immobilizing an apoE-specific capture antibody to a 96-well plate, addition of sample (conditioned medium from astrocytoma cells treated with the compound for 24 hours), and detection of the bound apoE using a second apoE-specific biotinylated antibody and streptavidin-HRP.
The Mabtech ELISA kit detects the presence of three apoE isoforms: apoE2, apoE3, and apoE4.
All triarylmethyl amine compounds listed in Table 1 were individually dissolved in DMSO at a stock concentration of 10 mM and individually tested. For ELISA's, 1.6×10^4 cells/96-well were grown for 1 day in RPMI, followed by a 24 hour equilibration in serum-free Opti-MEM (Life Technologies). Treatments were carried out in quadruplicate with 100 μL of fresh Opti-MEM containing 10 μM of compound or vehicle (0.1% DMSO) for 24 hours. Conditioned medium from these samples were then diluted 2-fold with incubation buffer (PBS+0.05% Tween-20+0.1% BSA) and analyzed with a human apoE HRP ELISA kit (Mabtech) according to the manufacturer's protocol. ApoE concentration in the sample was calculated based on a standard curve derived using known amounts of purified apoE supplied with the kit. The cells in the 96-well plates were used to determine the total cell number using CyQUANT reagent (Life Technologies).
The astrocytoma cells were treated for 24 hours with a 10 μM concentration of each of the individual 37 compounds listed in Table 1.

[2] = system: apoE mRNA in HepG2 human liver cells; assay: ApoE mRNA qPCR in HepG2 liver cells; settings: 24 hours in OptiMEM, HPRT1 and β-actin as housekeeping genes
Description: (§1) Quantitative reverse transcription polymerase chain reaction (qPCR) is a laboratory technique used to amplify and quantify the steady-state levels of apoE messenger RNA (mRNA) by converting the copy DNA (cDNA). The targeted DNA molecule quantity can be determined as a relative amount when normalized to housekeeping genes. For qPCR, reverse transcription is used to quantify the amount of mRNA produced through the balance between transcription rate and degradation rates. The amount of mRNA available is the one factor which can affect the overall protein expression. Quantification of the cDNA produced during reverse transcription of the mRNA may be accomplished by detecting the fluorescent markers, such as fluorophores, that selectively hybridize with the DNA target.
(§2) The HepG2 (ATCC, HB-8065) human liver cells were treated with one of the selected triarylmethyl amine compounds for 24 hours in OptiMEM. The selected triarylmethyl amine compounds were individually dissolved in DMSO at a stock concentration of 10 mM and individually tested. Total RNA was extracted using the RNeasy Plus Mini Kit (Qiagen). Genomic DNA (gDNA) was removed by centrifugation through gDNA eliminator spin columns included with the kit. Samples of total RNA were reverse transcribed following instructions in the Superscript III first strand synthesis kit (Life Technologies). ApoE, HPRT1, and β-actin cDNA levels were quantified by TaqMan multiplex quantitative PCR using a CFX96 Real-Time PCR Detection System (BioRad). Reactions were carried out with SensiMix II Probe Master Mix (Bioline) in a 20 μl total volume containing 5-30 ng of cDNA template. Fluorescent labels and primer/probe concentrations were as follows: apoE (5′-FAM, 600 nM/300 nM), HPRT1 (5′-TEX-615, 100 nM/25 nM), and β-actin (5′-Cy5, 100 nM/25 nM). ZEN double quenched probes (Integrated DNA technologies) were used for all apoE reactions. The reactions were performed in triplicate and the results were analyzed using qbasePLUS (Biogazelle) with HPRT1 and β-actin as housekeeping genes.

[3] = system: apoE mRNA in CCF-STTG1 human astrocytoma cells; assay: ApoE mRNA qPCR in CCF-STTG1 astrocytoma cells; parameters: unit not given here; settings: 24 hours in OptiMEM, HPRT1 and β-actin as housekeeping genes
Description: as §1
as §2, with “CCF-STTG1” for “HepG2”, “CRL-1718)” for “HB-8065)”, “astrocytoma” for “liver”, “μL” for “μl”

[4] = system: apoE expression in human HepG2 liver cells; assay: ApoE ELISA on conditioned medium of human HepG2 liver cells; settings: 10 μM compound, 24 hours, normalized to DMSO treated wells
Experimental: To obtain the data shown in Table 4, the human HepG2 liver cells (ATCC, HB-8065 were maintained in RPMI medium (Mediatech) supplemented with 10 mM HEPES, 1 mM sodium pyruvate, 4.5 g/L glucose, 1% penicillin/streptomycin, and 10% bovine growth serum (HyClone) at 37° C. with 5% CO2
Compound Nos. 13, 31, 33, 35 or 36—as listed in Table 1—were individually dissolved in DMSO at a stock concentration of 10 mM and individually tested. For ELISA's, 1.6×10^4 cells/96-well were grown for 1 day in RPMI, followed by a 24 hour equilibration in serum-free Opti-MEM (Life Technologies). Treatments were carried out in quadruplicate with 100 μL of fresh Opti-MEM containing 10 μM of compound or vehicle (0.1% DMSO) for 24 hours. Conditioned medium from these samples were then diluted 2-fold with incubation buffer (PBS+0.05% Tween-20+0.1% BSA) and analyzed with a human apoE HRP ELISA kit (Mabtech) according to the manufacturer's protocol.
A standard curve was used to derive sample apoE concentrations. The cells in the 96-well plates were used to determine the total cell number using CyQUANT reagent (Life Technologies). Sample apoE concentrations were adjusted for total cell number and then normalized to DMSO treated wells. Results for each set of compounds tested in parallel (n=3) were analyzed by a one-tailed t-test.
The data in Table 3 were obtained by using an apoE ELISA assay to monitor human HepG2 cell production of apoE after the HepG2 cells were treated with Compound Nos. 13, 31, 33, 35 and 36, as listed on Table 1. The HepG2 liver cells were treated for 24 hours with a 10 μM concentration of each of Compound Nos. 13, 31, 33, 35 and 36, as listed on Table 1.

[5] = system: apoE mRNA in H4 human neuroglioma cells; assay: ApoE mRNA qPCR in H4 neuroglioma cells; parameters: unit not given here; settings: 24 hours in OptiMEM, HPRT1 and β-actin as housekeeping genes
Description: as §1
The selected triarylmethyl amine compounds were individually dissolved in DMSO at a stock concentration of 10 mM and individually tested. Total RNA was extracted using the RNeasy Plus Mini Kit (Qiagen). Genomic DNA (gDNA) was removed by centrifugation through gDNA eliminator spin columns included with the kit. Samples of total RNA were reverse transcribed following instructions in the Superscript III first strand synthesis kit (Life Technologies). ApoE, HPRT1, and β-actin cDNA levels were quantified by TaqMan multiplex quantitative PCR using a CFX96 Real-Time PCR Detection System (BioRad).

COc1ccc(C(c2ccccc2)(c2ccccc2)N(C)C)cc1 [Compound 16]
Inhibition Percentage of ApoE Expression [1]: 35%
ApoE (ng/ml) Normalized for Cell Count and Vehicle Treatment [1]: 0.65 ng/mL

c1ccc(C(NCC2CCCCC2)(c2ccccc2)c2ccccc2)cc1 [Compound 13, cyclohexylmethyl-trityl-amine]
ApoE (ng/ml) Normalized for Cell Count and Vehicle Treatment [2]: 1.16 ratio to vehicle
ApoE (ng/ml) Normalized for Cell Count and Vehicle Treatment [3]: 1.10
ApoE (ng/ml) Normalized for Cell Count and Vehicle Treatment [1]: 0.49 ng/mL
ApoE (ng/ml) Normalized for Cell Count and Vehicle Treatment [4]: 1.03 ng/mL

CN(C)C(c1ccccc1)(c1ccccc1)c1ccc2ccccc2c1 [Compound 28]
Inhibition Percentage of ApoE Expression [1]: 35%
ApoE (ng/ml) Normalized for Cell Count and Vehicle Treatment [1]: 0.65 ng/mL

CCN(CC)C(c1ccccc1)(c1ccccc1)c1ccc(OC)cc1 [Compound 17, Diethyl-[(4-methoxy-phenyl)-diphenyl-methyl]-amine]
Inhibition Percentage of ApoE Expression [1]: 17%
ApoE (ng/ml) Normalized for Cell Count and Vehicle Treatment [1]: 0.83 ng/mL

c1ccc(C(c2ccccc2)(c2ccc3ccccc3c2)N2CCCC2)cc1 [Compound 31, 1-(naphthalen-2-yl-diphenyl-methyl)-pyrrolidine]
ApoE (ng/ml) Normalized for Cell Count and Vehicle Treatment [2]: 0.86 ratio to vehicle
ApoE (ng/ml) Normalized for Cell Count and Vehicle Treatment [3]: 0.86
Inhibition Percentage of ApoE Expression [1]: 49%
Inhibition Percentage of ApoE Expression ([1]; listed as compound 31): about 49%
ApoE (ng/ml) Normalized for Cell Count and Vehicle Treatment [1]: 0.51 ng/mL
ApoE (ng/ml) Normalized for Cell Count and Vehicle Treatment [4]: 0.64 ng/mL

CC(C)CNC(c1ccccc1)(c1ccccc1)c1ccc2ccccc2c1 [Compound 35, isobutyl-(naphthalen-2-yl-diphenyl-methyl)-amine]
ApoE (ng/ml) Normalized for Cell Count and Vehicle Treatment [2]: 1.03 ratio to vehicle
ApoE (ng/ml) Normalized for Cell Count and Vehicle Treatment [3]: 0.87
Inhibition Percentage of ApoE Expression [1]: 50%
Inhibition Percentage of ApoE Expression ([1]; listed as compound 35): about 50%
ApoE (ng/ml) Normalized for Cell Count and Vehicle Treatment [1]: 0.50 ng/mL
ApoE (ng/ml) Normalized for Cell Count and Vehicle Treatment [4]: 0.78 ng/mL

CCC(C)NC(c1ccccc1)(c1ccccc1)c1ccc2ccccc2c1 (stereo not shown) [Compound 36, sec-butyl-(naphthalen-2-yl-diphenyl-methyl)-amine]
ApoE (ng/ml) Normalized for Cell Count and Vehicle Treatment [2]: 0.93 ratio to vehicle
ApoE (ng/ml) Normalized for Cell Count and Vehicle Treatment [3]: 0.85
Inhibition Percentage of ApoE Expression [1]: 66%
Inhibition Percentage of ApoE Expression ([1]; listed as compound 36): about 66%
ApoE (ng/ml) Normalized for Cell Count and Vehicle Treatment [1]: 0.34 ng/mL
ApoE (ng/ml) Normalized for Cell Count and Vehicle Treatment [4]: 0.81 ng/mL

c1ccc(C(c2ccccc2)(c2ccc3ccccc3c2)N2CCOCC2)cc1 [Compound 33, 4-(Naphthalen-2-yl-diphenyl-methyl)-morpholine]
ApoE (ng/ml) Cell Count Normalized for Cell Count and Vehicle Treatment [5]: 0.59
ApoE (ng/ml) Normalized for Cell Count and Vehicle Treatment [2]: 1.22 ratio to vehicle
ApoE (ng/ml) Normalized for Cell Count and Vehicle Treatment [3]: 0.88
Inhibition Percentage of ApoE Expression [1]: 46%
Inhibition Percentage of ApoE Expression ([1]; listed as compound 33): about 46%
ApoE (ng/ml) Normalized for Cell Count and Vehicle Treatment [1]: 0.54 ng/mL
ApoE (ng/ml) Normalized for Cell Count and Vehicle Treatment [4]: 0.77 ng/mL

CN(C)C(c1ccccc1)(c1ccccc1)c1ccccc1 [Compound 1]
Inhibition Percentage of ApoE Expression [1]: 8%
ApoE (ng/ml) Normalized for Cell Count and Vehicle Treatment [1]: 0.92 ng/mL
